Assay results taken from ChEMBL document CHEMBL1201861, “Genomics of Drug Sensitity in Cancer screening data, Wellcome Trust Sanger Institute”.

Assays:
Assay in all cases: cells
[1] = system: MG-63; format: functional, cell-based, Homo sapiens; conditions: Homo sapiens, MG-63;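 further: growth inhibition of human MG-63 cells, read out with a cell viability assay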
Description: SANGER: Inhibition of human MG-63 cell growth in a cell viability assay.

[2] = system: C2BBe1; format: functional, cell-based, Homo sapiens; conditions: Homo sapiens, C2BBe1;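 further: growth inhibition of C2BBe1 cells, read out through a viability assay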
Description: SANGER: Inhibition of human C2BBe1 cell growth in a cell viability assay.

[3] = system: SW-620; format: functional, cell-based, Homo sapiens; conditions: Homo sapiens, SW-620;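 further: growth inhibition of human SW-620 cells, measured by a cell viability assay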
Description: SANGER: Inhibition of human SW620 cell growth in a cell viability assay.

[4] = system: NCI-H82; format: functional, cell-based; conditions: Homo sapiens;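 further: growth inhibition of NCI-H82 cells, measured with a cell viability readout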
Description: SANGER: Inhibition of human NCI-H82 cell growth in a cell viability assay.

[5] = system: HH; format: functional, cell-based; conditions: Homo sapiens
Description: SANGER: Inhibition of human HH cell growth in a cell viability assay.

[6] = system: SF-268; format: functional, cell-based, Homo sapiens; conditions: Homo sapiens, SF-268;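 further: growth inhibition of SF-268 cells determined with a cell viability assay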
Description: SANGER: Inhibition of human SF268 cell growth in a cell viability assay.

[7] = system: HLE; format: functional, cell-based, Homo sapiens; conditions: Homo sapiens, HLE;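 further: growth inhibition of human HLE cells, read out by a cell viability assay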
Description: SANGER: Inhibition of human HLE cell growth in a cell viability assay.

[8] = system: IGR-1; format: functional, cell-based, Homo sapiens; conditions: Homo sapiens, IGR-1;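 further: growth inhibition of human IGR-1 cells, read out with a cell viability assay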
Description: SANGER: Inhibition of human IGR-1 cell growth in a cell viability assay.

[9] = system: SN12C; format: functional, cell-based, Homo sapiens; conditions: Homo sapiens, SN12C;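 further: growth inhibition of human SN12C cells, measured by a cell viability assay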
Description: SANGER: Inhibition of human SN12C cell growth in a cell viability assay.

[10] = system: A498; format: functional, cell-based, Homo sapiens; conditions: Homo sapiens, A498;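 further: growth inhibition of human A498 cells, read out with a cell viability assay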
Description: SANGER: Inhibition of human A498 cell growth in a cell viability assay.

[11] = system: HAL-01; format: functional, cell-based; conditions: Homo sapiens;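 further: growth inhibition of human HAL-01 cells, read out with a cell viability assay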
Description: SANGER: Inhibition of human HAL-01 cell growth in a cell viability assay.

[12] = system: SW 962; format: functional, cell-based, Homo sapiens; conditions: Homo sapiens, SW 962;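 further: growth inhibition of human SW962 cells, read out by a cell viability assay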
Description: SANGER: Inhibition of human SW962 cell growth in a cell viability assay.

[13] = system: D283 Med; format: functional, cell-based, Homo sapiens; conditions: Homo sapiens, D283 Med
Description: SANGER: Inhibition of human D-283MED cell growth in a cell viability assay.

[14] = system: NB10; format: functional, cell-based, Homo sapiens; conditions: Homo sapiens, NB10;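 further: growth inhibition of NB10 cells, read out by a cell viability assay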
Description: SANGER: Inhibition of human NB10 cell growth in a cell viability assay.

[15] = system: TE-6; format: functional, cell-based, Homo sapiens; conditions: Homo sapiens, TE-6;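 further: growth inhibition of TE-6 cells, read out with a cell viability assay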
Description: SANGER: Inhibition of human TE-6 cell growth in a cell viability assay.

[16] = system: SF-126; format: functional, cell-based, Homo sapiens; conditions: Homo sapiens, SF-126;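 further: growth inhibition of human SF126 cells, read out with a cell viability assay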
Description: SANGER: Inhibition of human SF126 cell growth in a cell viability assay.

[17] = system: G-401; format: functional, cell-based, Homo sapiens; conditions: Homo sapiens, G-401
Description: SANGER: Inhibition of human G-401 cell growth in a cell viability assay.

[18] = system: TGBC1TKB; format: functional, cell-based, Homo sapiens; conditions: Homo sapiens, TGBC1TKB;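 further: growth inhibition of TGBC1TKB cells, read out by a cell viability assay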
Description: SANGER: Inhibition of human TGBC1TKB cell growth in a cell viability assay.

[19] = system: HT-3; format: functional, cell-based, Homo sapiens; conditions: Homo sapiens, HT-3;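 further: growth inhibition measured with a cell viability readout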
Description: SANGER: Inhibition of human HT-3 cell growth in a cell viability assay.

[20] = system: ES4; format: functional, cell-based, Homo sapiens; conditions: Homo sapiens, ES4;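 further: growth inhibition of human ES4 cells, read out by a cell viability assay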
Description: SANGER: Inhibition of human ES4 cell growth in a cell viability assay.

[21] = system: NCI-H2405; format: functional, cell-based, Homo sapiens; conditions: Homo sapiens, NCI-H2405;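 further: growth inhibition of the human cell line, read out with a cell viability assay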
Description: SANGER: Inhibition of human NCI-H2405 cell growth in a cell viability assay.

[22] = system: 786-0; format: functional, cell-based, Homo sapiens; conditions: Homo sapiens
Description: SANGER: Inhibition of human 786-0 cell growth in a cell viability assay.

[23] = system: K562; format: functional, cell-based; conditions: Homo sapiens
Description: SANGER: Inhibition of human K-562 cell growth in a cell viability assay.

[24] = system: ME-180; format: functional, cell-based; conditions: Homo sapiens;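 further: cell viability assay measuring growth inhibition of ME-180 cells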
Description: SANGER: Inhibition of human ME-180 cell growth in a cell viability assay.

[25] = system: SW 954; format: functional, cell-based, Homo sapiens; conditions: Homo sapiens, SW 954;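 further: growth inhibition of SW954 human cancer cells, read out as cell viability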
Description: SANGER: Inhibition of human SW954 cell growth in a cell viability assay.

[26] = system: BFTC-905; format: functional, cell-based, Homo sapiens; conditions: Homo sapiens, BFTC-905
Description: SANGER: Inhibition of human BFTC-905 cell growth in a cell viability assay.

[27] = system: TYK-nu; format: functional, cell-based, Homo sapiens; conditions: Homo sapiens, TYK-nu;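 further: growth inhibition of human TYK-nu cells, read out by a cell viability assay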
Description: SANGER: Inhibition of human TYK-nu cell growth in a cell viability assay.

[28] = system: SKG-IIIa; format: functional, cell-based, Homo sapiens; conditions: Homo sapiens, SKG-IIIa;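 further: cell growth inhibition, read out with a cell viability assay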
Description: SANGER: Inhibition of human SKG-IIIa cell growth in a cell viability assay.

[29] = system: NCI-H441; format: functional, cell-based; conditions: Homo sapiens;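 further: growth inhibition of NCI-H441 cells, read out with a cell viability assay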
Description: SANGER: Inhibition of human NCI-H441 cell growth in a cell viability assay.

[30] = system: SBC-5; format: functional, cell-based, Homo sapiens; conditions: Homo sapiens, SBC-5;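 further: cell viability assay read-out, IC50 is the concentration that inhibits growth of the cells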
Description: SANGER: Inhibition of human SBC-5 cell growth in a cell viability assay.

[31] = system: EW-1; format: functional, cell-based, Homo sapiens; conditions: Homo sapiens, EW-1;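 further: growth inhibition of the human EW-1 cell line, read out by a cell viability assay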
Description: SANGER: Inhibition of human EW-1 cell growth in a cell viability assay.

[32] = system: MKN-45; format: functional, cell-based, Homo sapiens; conditions: Homo sapiens, MKN-45;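 further: growth inhibition of human MKN-45 cells, measured with a cell viability assay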
Description: SANGER: Inhibition of human MKN45 cell growth in a cell viability assay.

[33] = system: CWR22R; format: functional, cell-based, Homo sapiens; conditions: Homo sapiens, 22Rv1;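 further: growth inhibition of 22Rv1 cells, read out with a cell viability assay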
Description: SANGER: Inhibition of human 22RV1 cell growth in a cell viability assay.

[34] = system: MFE-280; format: functional, cell-based, Homo sapiens; conditions: Homo sapiens, MFE-280;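 further: growth inhibition of MFE-280 cells, determined with a cell viability readout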
Description: SANGER: Inhibition of human MFE-280 cell growth in a cell viability assay.

[35] = system: CHP-212; format: functional, cell-based, Homo sapiens; conditions: Homo sapiens, CHP-212
Description: SANGER: Inhibition of human CHP-212 cell growth in a cell viability assay.

[36] = system: FTC-133; format: functional, cell-based, Homo sapiens; conditions: Homo sapiens, FTC-133
[37] = system: BHT-101; format: functional, cell-based, Homo sapiens; conditions: Homo sapiens, BHT-101
Description: SANGER: Inhibition of human BHT-101 cell growth in a cell viability assay.

[38] = system: G-402; format: functional, cell-based, Homo sapiens; conditions: Homo sapiens, G-402
Description: SANGER: Inhibition of human G-402 cell growth in a cell viability assay.

[39] = system: A4-Fuk; format: functional, cell-based; conditions: Homo sapiens;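 further: growth inhibition of A4-Fuk cells, read out by a cell viability assay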
Description: SANGER: Inhibition of human A4-Fuk cell growth in a cell viability assay.

[40] = system: Hs-578T; format: functional, cell-based, Homo sapiens; conditions: Homo sapiens, Hs-578T
Description: SANGER: Inhibition of human Hs-578-T cell growth in a cell viability assay.

[41] = system: ES3; format: functional, cell-based, Homo sapiens; conditions: Homo sapiens, ES3;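 further: growth inhibition of ES3 cells, read out with a cell viability assay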
Description: SANGER: Inhibition of human ES3 cell growth in a cell viability assay.

[42] = system: VMRC-RCZ; format: functional, cell-based; conditions: Homo sapiens;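 further: growth inhibition measured with a cell viability assay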
Description: SANGER: Inhibition of human VMRC-RCZ cell growth in a cell viability assay.

[43] = system: PANC-03-27; format: functional, cell-based, Homo sapiens; conditions: Homo sapiens, PANC-03-27
Description: SANGER: Inhibition of human PANC-03-27 cell growth in a cell viability assay.

[44] = system: NH-12; format: functional, cell-based, Homo sapiens; conditions: Homo sapiens, NH-12;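 further: growth inhibition of NH-12 cells, read out with a cell viability assay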
Description: SANGER: Inhibition of human NH-12 cell growth in a cell viability assay.

[45] = system: CAL-120; format: functional, cell-based, Homo sapiens; conditions: Homo sapiens, CAL-120;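 further: cell growth inhibition, read out as cell viability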
Description: SANGER: Inhibition of human CAL-120 cell growth in a cell viability assay.

[46] = system: NB5; format: functional, cell-based, Homo sapiens; conditions: Homo sapiens, NB5;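 further: growth inhibition of NB5 cells, read out as cell viability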
Description: SANGER: Inhibition of human NB5 cell growth in a cell viability assay.

[47] = system: EFO-21; format: functional, cell-based, Homo sapiens; conditions: Homo sapiens, EFO-21;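 further: growth inhibition of EFO-21 cells measured with a viability assay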
Description: SANGER: Inhibition of human EFO-21 cell growth in a cell viability assay.

[48] = system: MFH-ino; format: functional, cell-based; conditions: Homo sapiens;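 further: growth inhibition of human MFH-ino cells, read out by a cell viability assay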
Description: SANGER: Inhibition of human MFH-ino cell growth in a cell viability assay.

[49] = system: LC-2-ad; format: functional, cell-based, Homo sapiens; conditions: Homo sapiens, LC-2-ad;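 further: growth inhibition of human LC-2-ad cells, read out with a cell viability assay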
Description: SANGER: Inhibition of human LC-2-ad cell growth in a cell viability assay.

[50] = system: A388; format: functional, cell-based, Homo sapiens; conditions: Homo sapiens, A388;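 further: growth inhibition of human A388 cells, read out with a cell viability assay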
Description: SANGER: Inhibition of human A388 cell growth in a cell viability assay.

[51] = system: QIMR-WIL; format: functional, cell-based; conditions: Homo sapiens;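 further: growth inhibition of QIMR-WIL cells, read out with a cell viability assay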
Description: SANGER: Inhibition of human QIMR-WIL cell growth in a cell viability assay.

[52] = system: NB17; format: functional, cell-based; conditions: Homo sapiens;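 further: growth inhibition of NB17 cells, read out with a cell viability assay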
Description: SANGER: Inhibition of human NB17 cell growth in a cell viability assay.

SMILES: CN(c1ncccc1CNc1nc(Nc2ccc3c(c2)CC(=O)N3)ncc1C(F)(F)F)S(C)(=O)=O [PF-00562271]
- IC50 [1]: 0.806 µM
- IC50 [2]: > 2.56 µM
- IC50 [3]: > 2.56 µM
- IC50 [4]: > 2.56 µM
- IC50 [5]: > 2.56 µM
- IC50 [6]: > 2.56 µM
- IC50 [7]: > 2.56 µM
- IC50 [8]: > 2.56 µM
- IC50 [9]: > 2.56 µM
- IC50 [10]: > 2.56 µM
- IC50 [11]: > 2.56 µM
- IC50 [12]: > 2.56 µM
- IC50 [13]: > 2.56 µM
- IC50 [14]: > 2.56 µM
- IC50 [15]: > 2.56 µM
- IC50 [16]: > 2.56 µM
- IC50 [17]: > 2.56 µM
- IC50 [18]: > 2.56 µM
- IC50 [19]: > 2.56 µM
- IC50 [20]: > 2.56 µM
- IC50 [21]: > 2.56 µM
- IC50 [22]: > 2.56 µM
- IC50 [23]: > 2.56 µM
- IC50 [24]: > 2.56 µM
- IC50 [25]: 2 µM
- IC50 [26]: > 2.56 µM
- IC50 [27]: > 2.56 µM
- IC50 [28]: > 2.56 µM
- IC50 [29]: > 2.56 µM
- IC50 [30]: > 2.56 µM
- IC50 [31]: > 2.56 µM
- IC50 [32]: > 2.56 µM
- IC50 [33]: > 2.56 µM
- IC50 [34]: > 2.56 µM
- IC50 [35]: 2.1 µM
- IC50 [36]: > 2.56 µM
- IC50 [37]: > 2.56 µM
- IC50 [38]: > 2.56 µM
- IC50 [39]: > 2.56 µM
- IC50 [40]: > 2.56 µM
- IC50 [41]: > 2.56 µM
- IC50 [42]: > 2.56 µM
- IC50 [43]: > 2.56 µM
- IC50 [44]: > 2.56 µM
- IC50 [45]: > 2.56 µM
- IC50 [46]: > 2.56 µM
- IC50 [47]: > 2.56 µM
- IC50 [48]: > 2.56 µM
- IC50 [49]: 2.27 µM
- IC50 [50]: > 2.56 µM
- IC50 [51]: > 2.56 µM

SMILES: COC(=O)CNC(=O)C(=O)OC
- IC50 [1]: 144 µM
- IC50 [2]: 1730 µM
- IC50 [3]: 3230 µM
- IC50 [4]: > 4000 µM
- IC50 [5]: 34 µM
- IC50 [6]: 414 µM
- IC50 [7]: 57.7 µM
- IC50 [8]: 1650 µM
- IC50 [9]: 257 µM
- IC50 [10]: 663 µM
- IC50 [11]: 119 µM
- IC50 [12]: 265 µM
- IC50 [13]: 521 µM
- IC50 [14]: 524 µM
- IC50 [15]: 1360 µM
- IC50 [16]: 220 µM
- IC50 [17]: 1460 µM
- IC50 [18]: 1790 µM
- IC50 [19]: 853 µM
- IC50 [20]: 1150 µM
- IC50 [21]: 261 µM
- IC50 [22]: > 4000 µM
- IC50 [23]: 2030 µM
- IC50 [24]: 257 µM
- IC50 [25]: 85.4 µM
- IC50 [26]: 580 µM
- IC50 [28]: 308 µM
- IC50 [29]: 839 µM
- IC50 [30]: 1390 µM
- IC50 [31]: 977 µM
- IC50 [32]: > 4000 µM
- IC50 [33]: 304 µM
- IC50 [34]: 1030 µM
- IC50 [35]: 181 µM
- IC50 [36]: > 4000 µM
- IC50 [37]: > 4000 µM
- IC50 [38]: 1230 µM
- IC50 [39]: 45 µM
- IC50 [40]: 3120 µM
- IC50 [41]: 701 µM
- IC50 [42]: 1960 µM
- IC50 [43]: 672 µM
- IC50 [44]: > 4000 µM
- IC50 [45]: 806 µM
- IC50 [46]: > 4000 µM
- IC50 [47]: 260 µM
- IC50 [48]: 644 µM
- IC50 [49]: 24.6 µM
- IC50 [50]: 2460 µM
- IC50 [51]: 424 µM

SMILES: COc1cc(F)c(F)c(Nc2ccc(I)cc2F)c1NS(=O)(=O)C1(CC(O)CO)CC1 (stereo unspecified)
- IC50 [1]: 2.82 µM
- IC50 [2]: 0.559 µM
- IC50 [3]: 0.276 µM
- IC50 [4]: > 5 µM
- IC50 [5]: > 5 µM
- IC50 [6]: > 5 µM
- IC50 [7]: > 5 µM
- IC50 [8]: > 5 µM
- IC50 [9]: > 5 µM
- IC50 [10]: > 5 µM
- IC50 [11]: > 5 µM
- IC50 [12]: 1.5 µM
- IC50 [13]: > 5 µM
- IC50 [14]: > 5 µM
- IC50 [15]: > 5 µM
- IC50 [16]: > 5 µM
- IC50 [17]: 1.97 µM
- IC50 [18]: > 5 µM
- IC50 [19]: > 5 µM
- IC50 [20]: > 5 µM
- IC50 [21]: 1.87 µM
- IC50 [22]: 2.37 µM
- IC50 [23]: > 5 µM
- IC50 [24]: 1.75 µM
- IC50 [25]: > 5 µM
- IC50 [26]: 0.719 µM
- IC50 [27]: 0.441 µM
- IC50 [28]: > 5 µM
- IC50 [29]: > 5 µM
- IC50 [30]: > 5 µM
- IC50 [31]: > 5 µM
- IC50 [33]: > 5 µM
- IC50 [34]: > 5 µM
- IC50 [35]: 0.00492 µM
- IC50 [36]: 4.55 µM
- IC50 [37]: 0.106 µM
- IC50 [38]: > 5 µM
- IC50 [39]: 1.85 µM
- IC50 [40]: 1.76 µM
- IC50 [41]: > 5 µM
- IC50 [42]: > 5 µM
- IC50 [43]: 0.768 µM
- IC50 [44]: 1.2 µM
- IC50 [45]: > 5 µM
- IC50 [46]: 0.978 µM
- IC50 [52]: > 5 µM
- IC50 [47]: > 5 µM
- IC50 [49]: > 5 µM
- IC50 [50]: > 5 µM
- IC50 [51]: > 5 µM
